The assay addresses hNav1.7 (Homo sapiens, UniProt Q15858). Put plainly: cell-based. The assay is classed as cell-based. As to conditions: read-out: IWQ Use Nav1.7.

Structures are written as SMILES. pIC50: −log10 of the molar value. Read-outs that look alike come from different tables or passages of the source. Positions of bridges follow the written chain, without caps; N, C: chain ends. Non-standard residues stand in square brackets, D forms with d. Residues, ends and D or L forms follow the SMILES beside them. 1Nal = N[C@@H](Cc1cccc2ccccc12)C(=O)O

Sequence of hNav1.7 (Q15858 whole entry, looked up): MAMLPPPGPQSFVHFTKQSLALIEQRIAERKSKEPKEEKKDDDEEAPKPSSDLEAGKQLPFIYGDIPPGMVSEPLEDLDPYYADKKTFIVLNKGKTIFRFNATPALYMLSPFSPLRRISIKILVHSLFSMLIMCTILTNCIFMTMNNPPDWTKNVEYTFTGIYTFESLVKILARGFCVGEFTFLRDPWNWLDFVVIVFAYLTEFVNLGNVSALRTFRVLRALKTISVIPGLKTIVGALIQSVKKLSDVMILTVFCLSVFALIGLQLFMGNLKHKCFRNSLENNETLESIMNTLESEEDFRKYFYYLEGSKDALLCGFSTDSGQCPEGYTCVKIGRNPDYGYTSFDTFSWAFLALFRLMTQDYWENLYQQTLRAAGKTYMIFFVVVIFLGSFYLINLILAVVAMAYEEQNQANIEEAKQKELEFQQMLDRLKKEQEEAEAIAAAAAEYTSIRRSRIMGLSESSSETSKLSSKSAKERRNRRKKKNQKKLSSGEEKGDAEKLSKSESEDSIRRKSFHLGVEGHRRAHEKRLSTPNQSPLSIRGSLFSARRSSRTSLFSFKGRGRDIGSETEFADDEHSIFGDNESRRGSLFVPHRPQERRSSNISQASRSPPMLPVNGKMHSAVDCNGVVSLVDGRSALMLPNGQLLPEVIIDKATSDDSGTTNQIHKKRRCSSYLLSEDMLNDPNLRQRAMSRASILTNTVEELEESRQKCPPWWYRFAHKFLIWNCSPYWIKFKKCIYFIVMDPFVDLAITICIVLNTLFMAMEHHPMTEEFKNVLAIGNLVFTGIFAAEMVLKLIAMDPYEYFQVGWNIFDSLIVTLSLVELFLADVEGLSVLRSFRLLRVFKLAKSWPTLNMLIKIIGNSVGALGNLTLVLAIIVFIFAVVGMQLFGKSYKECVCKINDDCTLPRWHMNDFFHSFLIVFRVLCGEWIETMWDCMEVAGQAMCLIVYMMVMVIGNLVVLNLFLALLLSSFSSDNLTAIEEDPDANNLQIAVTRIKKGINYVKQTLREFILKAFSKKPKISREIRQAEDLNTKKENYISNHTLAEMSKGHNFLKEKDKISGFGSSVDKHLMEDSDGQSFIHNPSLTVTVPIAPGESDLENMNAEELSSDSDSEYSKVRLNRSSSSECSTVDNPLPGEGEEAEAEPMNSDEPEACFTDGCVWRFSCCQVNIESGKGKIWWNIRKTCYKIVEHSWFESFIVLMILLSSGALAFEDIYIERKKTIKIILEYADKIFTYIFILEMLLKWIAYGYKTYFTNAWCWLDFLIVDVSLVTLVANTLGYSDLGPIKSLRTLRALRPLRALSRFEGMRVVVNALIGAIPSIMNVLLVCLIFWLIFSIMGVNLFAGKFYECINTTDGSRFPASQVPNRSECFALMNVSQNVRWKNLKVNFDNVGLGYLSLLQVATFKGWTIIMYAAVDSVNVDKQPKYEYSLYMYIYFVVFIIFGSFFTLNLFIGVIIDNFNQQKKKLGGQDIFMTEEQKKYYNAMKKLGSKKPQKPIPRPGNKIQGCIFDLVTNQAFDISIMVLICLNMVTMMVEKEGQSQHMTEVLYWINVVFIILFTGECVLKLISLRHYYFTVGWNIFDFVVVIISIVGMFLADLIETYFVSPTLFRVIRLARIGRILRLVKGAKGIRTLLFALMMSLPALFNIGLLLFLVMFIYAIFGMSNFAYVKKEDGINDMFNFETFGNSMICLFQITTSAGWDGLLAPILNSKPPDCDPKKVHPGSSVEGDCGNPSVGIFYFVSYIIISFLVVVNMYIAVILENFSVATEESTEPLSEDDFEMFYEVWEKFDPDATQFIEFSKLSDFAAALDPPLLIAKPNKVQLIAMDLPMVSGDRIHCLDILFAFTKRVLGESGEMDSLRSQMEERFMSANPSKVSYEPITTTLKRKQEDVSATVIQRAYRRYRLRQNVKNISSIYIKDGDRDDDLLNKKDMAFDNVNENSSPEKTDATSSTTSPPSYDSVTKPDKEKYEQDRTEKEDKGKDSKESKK

Regarding `CC[C@H](C)[C@@H]1NC(=O)[C@@H]2CSSC[C@@H]3NC(=O)[C@H](CCC(=O)O)NC(=O)[C@H](CC(C)C)NC(=O)[C@H](CC(N)=O)NC(=O)[C@@H]4CCCN4C(=O)[C@H](CCCNC(=N)N)NC(=O)[C@H](CSSC[C@H](NC(=O)[C@@H](N)CC(=O)O)C(=O)N[C@@H](CC(C)C)C(=O)NCC(=O)N[C@@H](Cc4ccccc4)C(=O)N[C@@H](CCSC)C(=O)N[C@@H](CCCNC(=N)N)C(=O)N[C@@H](CCCCN)C(=O)N2)NC(=O)[C@H](CSSC[C@@H](C(=O)N[C@@H](CCCCN)C(=O)N[C@@H](Cc2ccc(O)cc2)C(=O)N[C@H](C(=O)N[C@@H](Cc2ccccc2)C(N)=O)C(C)C)NC(=O)[C@H](Cc2c[nH]c4ccccc24)NC(=O)[C@H](CCCCN)NC(=O)[C@H](Cc2c[nH]cn2)NC(=O)[C@H]([C@@H](C)O)NC(=O)[C@H](CCCNC(=N)N)NC(=O)[C@H](CO)NC3=O)NC(=O)[C@H](CCCCN)NC(=O)[C@H](CC(=O)O)NC(=O)[C@H](CC(N)=O)NC(=O)[C@H](CC(=O)O)NC(=O)[C@@H]2CCCN2C1=O` [compound 102] (H-DCLGFMRKCIPDNDKCCRPNLECSRTHKWCKYVF-NH2; disulfide 2-17, 9-23, 16-30), for the setting “IonWorks Quattro, Use”, the pIC50 was 5.85.
`CC[C@H](C)[C@@H]1NC(=O)[C@@H]2CSSC[C@@H]3NC(=O)[C@H](C(C)C)NC(=O)[C@H](CC(C)C)NC(=O)[C@H](CC(N)=O)NC(=O)[C@@H]4CCCN4C(=O)[C@H](CCCNC(=N)N)NC(=O)[C@H](CSSC[C@H](NC(=O)[C@@H](N)CC(=O)O)C(=O)N[C@@H](CC(C)C)C(=O)NCC(=O)N[C@@H](Cc4ccccc4)C(=O)N[C@@H](CCSC)C(=O)N[C@@H](CCCNC(=N)N)C(=O)N[C@@H](CCCCN)C(=O)N2)NC(=O)[C@H](CSSC[C@@H](C(=O)N[C@@H](CCCCN)C(=O)N[C@@H](Cc2cccc4ccccc24)C(=O)N[C@H](C(=O)N[C@@H](Cc2ccccc2)C(N)=O)C(C)C)NC(=O)[C@H](Cc2c[nH]c4ccccc24)NC(=O)[C@H](CCCCN)NC(=O)[C@H](Cc2c[nH]cn2)NC(=O)[C@H]([C@@H](C)O)NC(=O)[C@H](CCCNC(=N)N)NC(=O)[C@H](CO)NC3=O)NC(=O)[C@H](CCCCN)NC(=O)[C@H](CC(=O)O)NC(=O)[C@H](CC(N)=O)NC(=O)[C@H](CC(=O)O)NC(=O)[C@@H]2CCCN2C1=O` [compound 167] (H-DCLGFMRKCIPDNDKCCRPNLVCSRTHKWCK[1Nal]VF-NH2; disulfide 2-17, 9-23, 16-30): the pIC50 (Table 25, IonWorks Quattro, use, […]) was 8.40.
On to `CSCC[C@@H]1NC(=O)[C@H](Cc2ccccc2)NC(=O)CNC(=O)[C@H](CC(C)C)NC(=O)[C@@H](NC(=O)[C@@H](N)CC(=O)O)CSSC[C@@H]2NC(=O)[C@@H]3CSSC[C@@H](C(=O)N[C@@H](CCCCN)C(=O)N[C@@H](Cc4ccc(O)cc4)C(=O)N[C@H](C(=O)N[C@@H](Cc4ccccc4)C(N)=O)C(C)C)NC(=O)[C@H](Cc4c[nH]c5ccccc45)NC(=O)[C@H](CCCCN)NC(=O)[C@H](Cc4c[nH]cn4)NC(=O)[C@H]([C@@H](C)O)NC(=O)[C@H](CCCNC(=N)N)NC(=O)[C@H](CO)NC(=O)[C@H](CSSC[C@H](NC(=O)[C@H](CCCCN)NC(=O)[C@H](CCCNC(=N)N)NC1=O)C(=O)N[C@@H](CCC(=O)O)C(=O)N1CCC[C@H]1C(=O)N[C@@H](CC(=O)O)C(=O)N[C@@H](CC(N)=O)C(=O)N[C@@H](CC(=O)O)C(=O)N[C@@H](CCCCN)C(=O)N3)NC(=O)[C@H](C(C)C)NC(=O)[C@H](CC(C)C)NC(=O)[C@H](CC(N)=O)NC(=O)[C@@H]1CCCN1C(=O)[C@H](CCCNC(=N)N)NC2=O` [SEQ ID NO: 146, [Glu10]GpTx-1] (H-DCLGFMRKCEPDNDKCCRPNLVCSRTHKWCKYVF-NH2; disulfide 2-17, 9-23, 16-30), for which, for the setting “IonWorks Quattro, Use”, the pIC50 was 7.05.
Consider `CC[C@H](C)[C@@H]1NC(=O)[C@@H]2CSSC[C@@H]3NC(=O)[C@H](C(C)C)NC(=O)[C@H](CC(C)C)NC(=O)[C@H](CC(N)=O)NC(=O)[C@@H]4CCCN4C(=O)[C@H](CCCNC(=N)N)NC(=O)[C@H](CSSC[C@H](NC(=O)[C@@H](N)CC(=O)O)C(=O)N[C@@H](CC(C)C)C(=O)NCC(=O)N[C@@H](Cc4ccccc4)C(=O)N[C@@H](CCSC)C(=O)N[C@@H](CCCNC(=N)N)C(=O)N[C@@H](CCC(=O)O)C(=O)N2)NC(=O)[C@H](CSSC[C@@H](C(=O)N[C@@H](CCCCN)C(=O)N[C@@H](Cc2ccc(O)cc2)C(=O)N[C@H](C(=O)N[C@@H](Cc2ccccc2)C(N)=O)C(C)C)NC(=O)[C@H](Cc2c[nH]c4ccccc24)NC(=O)[C@H](CCCCN)NC(=O)[C@H](Cc2c[nH]cn2)NC(=O)[C@H]([C@@H](C)O)NC(=O)[C@H](CCCNC(=N)N)NC(=O)[C@H](CO)NC3=O)NC(=O)[C@H](CCCCN)NC(=O)[C@H](CC(=O)O)NC(=O)[C@H](CC(N)=O)NC(=O)[C@H](CC(=O)O)NC(=O)[C@@H]2CCCN2C1=O` [[Glu8]GpTx-1(1-34)] (H-DCLGFMRECIPDNDKCCRPNLVCSRTHKWCKYVF-NH2; disulfide 2-17, 9-23, 16-30), for which the pIC50 was 5.77.
On the same count and under the same terms, the result for `CC[C@H](C)[C@@H]1NC(=O)[C@@H]2CSSC[C@@H]3NC(=O)[C@H](C(C)C)NC(=O)[C@H](CC(C)C)NC(=O)[C@H](C)NC(=O)[C@@H]4CCCN4C(=O)[C@H](CCCNC(=N)N)NC(=O)[C@H](CSSC[C@H](NC(=O)[C@@H](N)CC(=O)O)C(=O)N[C@@H](CC(C)C)C(=O)NCC(=O)N[C@@H](Cc4ccccc4)C(=O)N[C@@H](CCSC)C(=O)N[C@@H](CCCNC(=N)N)C(=O)N[C@@H](CCCCN)C(=O)N2)NC(=O)[C@H](CSSC[C@@H](C(=O)N[C@@H](CCCCN)C(=O)N[C@@H](Cc2ccc(O)cc2)C(=O)N[C@H](C(=O)N[C@@H](Cc2ccccc2)C(N)=O)C(C)C)NC(=O)[C@H](Cc2c[nH]c4ccccc24)NC(=O)[C@H](CCCCN)NC(=O)[C@H](Cc2c[nH]cn2)NC(=O)[C@H]([C@@H](C)O)NC(=O)[C@H](CCCNC(=N)N)NC(=O)[C@H](CO)NC3=O)NC(=O)[C@H](CCCCN)NC(=O)[C@H](CC(=O)O)NC(=O)[C@H](CC(N)=O)NC(=O)[C@H](CC(=O)O)NC(=O)[C@@H]2CCCN2C1=O` [compound 7] (H-DCLGFMRKCIPDNDKCCRPALVCSRTHKWCKYVF-NH2; disulfide 2-17, 9-23, 16-30) reads 6.16.
As to `CC[C@H](C)[C@@H]1NC(=O)[C@@H]2CSSC[C@@H]3NC(=O)[C@H](C(C)C)NC(=O)[C@H](CC(C)C)NC(=O)[C@H](CC(N)=O)NC(=O)[C@@H]4CCCN4C(=O)[C@H](CCCNC(=N)N)NC(=O)[C@H](CSSC[C@H](NC(=O)[C@@H](N)CCC(=O)O)C(=O)N[C@@H](CC(C)C)C(=O)NCC(=O)N[C@@H](Cc4ccccc4)C(=O)N[C@@H](CCSC)C(=O)N[C@@H](CCCNC(=N)N)C(=O)N[C@@H](CCCCN)C(=O)N2)NC(=O)[C@H](CSSC[C@@H](C(=O)N[C@@H](CCCCN)C(=O)N[C@@H](Cc2ccc(O)cc2)C(=O)N[C@H](C(=O)N[C@@H](Cc2ccccc2)C(N)=O)C(C)C)NC(=O)[C@H](Cc2c[nH]c4ccccc24)NC(=O)[C@H](CCCCN)NC(=O)[C@H](Cc2c[nH]cn2)NC(=O)[C@H]([C@@H](C)O)NC(=O)[C@H](CCCNC(=N)N)NC(=O)[C@H](CO)NC3=O)NC(=O)[C@H](CCCCN)NC(=O)[C@H](CC(=O)O)NC(=O)[C@H](CC(N)=O)NC(=O)[C@H](CC(=O)O)NC(=O)[C@@H]2CCCN2C1=O` [SEQ ID NO: 18] (H-ECLGFMRKCIPDNDKCCRPNLVCSRTHKWCKYVF-NH2; disulfide 2-17, 9-23, 16-30), the pIC50 (IonWorks Quattro, clamped to −110 mV, depolarized to −10 mV, 5 min after compound, n=2) is 6.66.
